Laboratory results from PubChem BioAssay (NCI).
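The compound was tested at five concentrations on cells cultured in 96-well plates, with a 48-hour exposure period. TGI denotes the concentration required for complete inhibition of growth.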

Key:
Test in all cases: growth of human tumour cells (NCI), 48 h
786-0 renal = system: 786-0 renal
A498 renal = system: A498 renal
A549 NSCLC = system: A549 NSCLC
ACHN renal = system: ACHN renal
BT-549 breast = system: BT-549 breast
CAKI-1 renal = system: CAKI-1 renal
CCRF-CEM leukemia = system: CCRF-CEM leukemia
COLO 205 colon = system: COLO 205 colon
DU-145 prostate = system: DU-145 prostate
EKVX NSCLC = system: EKVX NSCLC
HCC-2998 colon = system: HCC-2998 colon
HCT-116 colon = system: HCT-116 colon
HCT-15 colon = system: HCT-15 colon
HL-60(TB) leukemia = system: HL-60(TB) leukemia
HOP-62 NSCLC = system: HOP-62 NSCLC
HOP-92 NSCLC = system: HOP-92 NSCLC
HS 578T breast = system: HS 578T breast
HT29 colon = system: HT29 colon
IGROV1 ovarian = system: IGROV1 ovarian
K-562 leukemia = system: K-562 leukemia
KM12 colon = system: KM12 colon
LOX IMVI melanoma = system: LOX IMVI melanoma
M14 melanoma = system: M14 melanoma
MALME-3M melanoma = system: MALME-3M melanoma
MCF7 breast = system: MCF7 breast
MDA-MB-231 breast = system: MDA-MB-231 breast
MDA-MB-435 = system: MDA-MB-435
MDA-N = system: MDA-N
MOLT-4 leukemia = system: MOLT-4 leukemia
NCI-H226 lung = system: NCI-H226 lung
NCI-H23 lung = system: NCI-H23 lung
NCI-H460 lung = system: NCI-H460 lung
NCI-H522 lung = system: NCI-H522 lung
NCI/ADR-RES ovarian = system: NCI/ADR-RES ovarian
OVCAR-3 ovarian = system: OVCAR-3 ovarian
OVCAR-4 ovarian = system: OVCAR-4 ovarian
OVCAR-5 ovarian = system: OVCAR-5 ovarian
OVCAR-8 ovarian = system: OVCAR-8 ovarian
PC-3 prostate = system: PC-3 prostate
RPMI-8226 leukemia = system: RPMI-8226 leukemia
RXF 393 renal = system: RXF 393 renal
SF-268 CNS = system: SF-268 CNS
SF-295 CNS = system: SF-295 CNS
SF-539 CNS = system: SF-539 CNS
SK-MEL-2 melanoma = system: SK-MEL-2 melanoma
SK-MEL-28 melanoma = system: SK-MEL-28 melanoma
SK-MEL-5 melanoma = system: SK-MEL-5 melanoma
SK-OV-3 ovarian = system: SK-OV-3 ovarian
SN12C renal = system: SN12C renal
SNB-19 CNS = system: SNB-19 CNS
SNB-75 CNS = system: SNB-75 CNS
SR leukemia = system: SR leukemia
SW-620 colon = system: SW-620 colon
T-47D breast = system: T-47D breast
TK-10 renal = system: TK-10 renal
U251 CNS = system: U251 CNS
UACC-257 melanoma = system: UACC-257 melanoma
UACC-62 melanoma = system: UACC-62 melanoma
UO-31 renal = system: UO-31 renal

For `COc1cccc(/C=N/n2c(Cc3ccc(Cl)cc3)n[nH]c2=O)c1`, the TGI (786-0 renal) was over 71.9 µM, the TGI (A498 renal) was over 100 µM and the TGI (A549 NSCLC) was over 100 µM. The TGI (ACHN renal) was 67.3 µM, the TGI (BT-549 breast) was 57.1 µM and the TGI (CAKI-1 renal) was over 81.9 µM. It also gave a TGI (CCRF-CEM leukemia) of over 100 µM, a TGI (COLO 205 colon) of over 100 µM and a TGI (DU-145 prostate) of over 100 µM. It also gave a TGI (EKVX NSCLC) of over 84 µM, a TGI (HCC-2998 colon) of over 100 µM and a TGI (HCT-116 colon) of over 100 µM. The TGI (HCT-15 colon) was over 100 µM, the TGI (HL-60(TB) leukemia) was over 100 µM and the TGI (HOP-62 NSCLC) was 43.9 µM. It also gave a TGI (HOP-92 NSCLC) of 52.1 µM, a TGI (HS 578T breast) of 72.7 µM and a TGI (HT29 colon) of 34 µM. The TGI (IGROV1 ovarian) was over 100 µM, the TGI (K-562 leukemia) was over 100 µM and the TGI (KM12 colon) was over 100 µM. It also gave a TGI (LOX IMVI melanoma) of over 100 µM, a TGI (M14 melanoma) of over 100 µM and a TGI (MALME-3M melanoma) of over 100 µM. The TGI (MCF7 breast) was over 100 µM, the TGI (MDA-MB-231 breast) was 48.2 µM and the TGI (MDA-MB-435) was over 100 µM. The TGI (MDA-N) was over 100 µM, the TGI (MOLT-4 leukemia) was over 100 µM and the TGI (NCI-H226 lung) was over 72.3 µM. It also gave a TGI (NCI-H23 lung) of over 70.3 µM, a TGI (NCI-H460 lung) of over 100 µM and a TGI (NCI-H522 lung) of 50.6 µM. It also gave a TGI (NCI/ADR-RES ovarian) of over 88.7 µM, a TGI (OVCAR-3 ovarian) of over 100 µM and a TGI (OVCAR-4 ovarian) of over 100 µM. For the same compound, the TGI (OVCAR-5 ovarian) was over 100 µM, the TGI (OVCAR-8 ovarian) was 36.7 µM and the TGI (PC-3 prostate) was over 100 µM. The TGI (RPMI-8226 leukemia) was over 100 µM, the TGI (RXF 393 renal) was 11.2 µM and the TGI (SF-268 CNS) was 34.9 µM. For the same compound, the TGI (SF-295 CNS) was 35.4 µM, the TGI (SF-539 CNS) was 32.6 µM and the TGI (SK-MEL-2 melanoma) was 58.6 µM. It also gave a TGI (SK-MEL-28 melanoma) of over 100 µM, a TGI (SK-MEL-5 melanoma) of over 100 µM and a TGI (SK-OV-3 ovarian) of 81.9 µM. For the same compound, the TGI (SN12C renal) was 71 µM, the TGI (SNB-19 CNS) was 67.8 µM and the TGI (SNB-75 CNS) was 25.3 µM. The TGI (SR leukemia) was over 100 µM, the TGI (SW-620 colon) was over 100 µM and the TGI (T-47D breast) was over 68.2 µM. The TGI (TK-10 renal) was over 100 µM, the TGI (U251 CNS) was 55.2 µM and the TGI (UACC-257 melanoma) was over 100 µM. For the same compound, the TGI (UACC-62 melanoma) was over 82.9 µM and the TGI (UO-31 renal) was over 100 µM.
